Assay results taken from patent publication US5648369A, “Aminoalkylpyridine compounds which are useful as anitconvulsant drugs, excitatory amino acid inhibitors and NMDA sigma receptor antagonists” (priority 1991, dated 1997).

Key:
[1] = system: MES and scMet seizures; assay: Anticonvulsant screening, ASP classification (MES and scMet tests) in mice, i.p.; assay type: in vivo, mouse; conditions: for ASP classification (Table 8): Table 8 comparison, titled MES Test, Rat, p.o.; for minimal effective dose: ip, i.p. mouse, read-out: ASP Group Classification
[2] = system: endogenous L-glutamate release; assay: Ca2+ dependent, K+ evoked release of endogenous L-glutamate in cerebrocortical slices; assay type: cell-based, guinea pig; conditions: Cavia porcellus, means ± SEM, n = 4
[3] = system: PCF; assay: Radioligand binding, PCP, [3H]TCP
Text: (§1) EAAs are known to play important roles in excitatory neurotransmission in partial seizures as discussed earlier. […] Thus, several aminoalkylpyridines of this invention are effective antagonists of NMDA-receptor mediated EAA neurotransmission and function as noncompetitive NMDA antagonists and thus can be used to advantage in epilepsy, stroke and Alzheimer's disease.
(§2) EAAs are known to play important roles in excitatory transmission in partial seizures as discussed earlier. In general, antieptileptic drugs effective against MES seizures alter ionic transport across excitable membranes [Porter, R. J., and Pitlick, W. H., In "Basic and Clinical Pharmacology", 4th Edn., B. G. Katzung, Ed., Appleton and Lange, CA 1989, pp. 287-303]. Based on this rationale, the aminoalkylpyridines may be expected to attenuate EAA neurotransmission. Indeed, evaluation of potential displacement activity of #2 at all inhibitory and excitatory amino acid receptor types and subtypes using appropriate radioligands, indicate that this aminoalkylpyridine inhibits at 10 μM concentration, 49% of the binding of [^3 H]DTG, a ligand highly specific for the σ (sigma) receptor population of the PCP receptors on the NMDA receptor-ionophore complex (Table 6).
(§3) Values are expressed as the percent inhibition of specific binding and […]

[4] = system: MK-801; assay: Radioligand binding, MK-801, [3H]MK-801
Text: as §1, §2, §3

[5] = system: Sigma; assay: Radioligand binding, Sigma, [3H]DTG; conditions: σ receptor population
Text: (§4) EAAs are known to play important roles in excitatory neurotransmission in partial seizures as discussed earlier.
(§5) EAAs are known to play important roles in excitatory transmission in partial seizures as discussed earlier.

[6] = system: maximal electroshock seizures; assay: Maximal electroshock seizure (MES) test in the rat, p.o.; conditions: for responders at 50 mg/kg / ED50: Rattus norvegicus, po; for responders at 50 mg/kg: read-out: Percent protection at 50 mg/kg dose, p.o., in the MES Test in the rat; for ED50: read-out: ED50 MES
Text: (§7) The Maximal Electroshock Seizure Test (MES): Maximal electroshock seizures are elicited with a 60 Hz alternating current of 50 mA intensity in mice and about 150 mA in rats (5-7 times that necessary to elicit minimal electroshock seizures), delivered for 0.2 sec via corneal electrodes. A drop of 0.9% saline is instilled in the eye prior to application of the electrodes in order to prevent the death of the animal. Abolition of the hind limb tonic extension component of the seizure is defined as protection and results are expressed as number of animals protected/number of animals tested.
This species will be subject of the complete anticonvulsant quantification test evaluation as described above, but after oral (gavage) administration of the candidate compound.
Neurological deficit in rats is examined by the positional sense test and gait and stance test. […] Inability to do so rapidly indicates a neurologic deficit. In the gait and stance test, a neurologic deficit is indicated by a circular or zigzag gait, ataxia, abnormal spread of the legs, abnormal body posture, tremor, hyperactivity, lack of exploratory behavior, somnolence, stupor, or catalepsy.

[7] = Rotorod ataxia test (neurotoxicity), mice, i.p.; conditions: mouse, in vivo, ip
Method: Neurotoxicity is evaluated in mice by the rotorod ataxia test. The animal is placed on a wooden rod of 11/8" diameter rotating at 6 rpm. Normal mice can remain on a rod rotating at this speed indefinitely.

[8] = system: subcutaneous pentylenetetrazol seizures; assay: Subcutaneous pentylenetetrazol (Metrazole) seizure threshold test (scMet), mice, i.p.; assay type: in vivo; conditions: Mus musculus, ip
Method: (§6) The Subcutaneous Pentylenetetrazol (Metrazole) Seizure Threshold Test (scMet): A 0.5% solution of 85 mg/kg of pentylenetetrazol is administered subcutaneously in the posterior midline. The animal is observed for 30 minutes.

[9] = system: maximal electroshock seizures; assay: Maximal electroshock seizure (MES) test, anticonvulsant quantification in mice, i.p.; conditions: for ED50: Mus musculus, ip, read-out: ED50 MES; for P.I. MES (TD50/ED50): mice
Method: Screening Methodology to Determine Anticonvulsant Activity: In mice, i.p.: All compounds are solubilized in 0.5% methylcellulose. […] The compounds are administered intraperitoneally in a volume of 0.01 ml/gm to male Carworth Farms #1 mice weighing about 20 gm. All compounds are tested at least at three dose levels (30, 100 an 300 mg/kg) at 30 minutes and 4 hours after their administration.
as §7
Anticonvulsant Quantification in Mice, i.p.: The ED50 values are determined in the MES, scMet and rotorod ataxia test.

[10] = in vivo; parameters: species or system rat (Sprague-Dawley); conditions: rat, po
Text: Inability to do so rapidly indicates a neurologic deficit.

[11] = system: subcutaneous pentylenetetrazol seizures; assay: Subcutaneous pentylenetetrazol seizure threshold test (scMet), rat, p.o.; assay type: in vivo, rat (Sprague-Dawley); conditions: po
Method: as §6

[12] = molecular target: Glycine (Homo sapiens, UniProt Q05586); assay: Radioligand binding, Glycine (excitatory), [3H]glycine; conditions: reference compound, [3H]glycine
Text: as §4, §5

[13] = molecular target: Kainate; assay: Radioligand binding, Kainate, [3H]KA; conditions: reference compound, [3H]KA
Text: as §1, §2, §3

[14] = molecular target: Adenosine; assay: Radioligand binding, Adenosine; conditions: reference compound, Adenosine
Text: as §1, §2, §3

Row | Structure (SMILES) | activity at the [3H]TCP-binding receptor sites / PCP receptors (in words) [3] | minimal effective dose [1] [mg/kg] | activity at the [3H]MK-801-binding receptor sites (in words) [4] | inhibition of the binding of [3H]DTG (in words) [5] | responders at 50 mg/kg [6] [%] | further results
1 | Cc1ccc(N2N=NCC2c2ccncc2)cc1 (centres unmarked) [4-CH3, reference compound] | – | – | – | – | – | ASP classification (Table 8) [1]: II (Class II compounds show anticonvulsant activity at doses greater than 100 mg/kg or show activity at 100 mg/kg which is not reinforced by similar activity at 300 mg/kg)
2 | COc1ccc(N2N=NCC2c2ccncc2)cc1 (centres unmarked) [4-OCH3, reference compound] | – | – | – | – | – | ASP classification (Table 8) [1]: III (Those failing to demonstrate anticonvulsant activity at doses up to 300 mg/kg are considered inactive)
3 | Clc1ccc(N2N=NCC2c2ccncc2)cc1 (centres unmarked) [ADD17014, reference compound] | – | – | – | – | – | activity at 50 µM ([2]; 50 μM (K+), 30 mM K+, P < 0.001 vs K+ alone): 136 ± 6%; activity at 50 µM ([2]; 50 μM (basal)): 101 ± 9%; activity at 100 µM ([2]; 100 μM (K+), 30 mM K+, P < 0.001 vs K+ alone): 122 ± 5%; activity at 100 µM ([2]; 100 μM (basal)): 109 ± 4%
4 | CC(Nc1ccc(Cl)c(Cl)c1)c1ccncc1 (centres unmarked) [Compound 1, 1-(3,4-Dicloroanilino)-1-(4-pyridyl)-ethan] | no activity | < 100 | no activity | inhibit selectively | – | –
5 | CC(Nc1cccc(Cl)c1)c1ccncc1 (centres unmarked) [Compound 3, 1-(3-Chloroanilino)-1-(4-pyridyl)-ethan] | no activity | < 100 | no activity | inhibit selectively | 50 to 75 | TD50 [7]: > 500 mg/kg; ED50 [8]: > 250 mg/kg; ED50 [9]: 95.5 mg/kg; P.I. MES (TD50/ED50) [9]: > 5.24
6 | CC(Nc1ccc(Br)cc1)c1ccncc1 (centres unmarked) [Compound 4, 1-(4-Bromoanilino)-1-(4-pyridyl)-ethan] | no activity | < 100 | no activity | inhibit selectively | 75 to 100 | TD50 [10]: > 500 mg/kg; ED50 [11]: > 250 mg/kg; ED50 [6]: 20.9 mg/kg; P.I. MES (TD50/ED50) ([6]; rat, p.o.): > 23.93; TD50 [7]: > 200 mg/kg; ED50 [8]: > 200 mg/kg; ED50 [9]: 62.7 mg/kg; P.I. MES (TD50/ED50) [9]: > 3.19
7 | CC(Nc1ccc(F)cc1)c1ccncc1 (centres unmarked) [Compound 5, 1-(4-Fluoroanilino)-1-(4-pyridyl)-ethan] | no activity | < 100 | no activity | inhibit selectively | 75 to 100 | TD50 [10]: > 500 mg/kg; ED50 [11]: > 250 mg/kg; ED50 [6]: 81.1 mg/kg; P.I. MES (TD50/ED50) ([6]; rat, p.o.): > 6.17; TD50 [7]: 141 mg/kg; ED50 [8]: > 80 mg/kg; ED50 [9]: 57.4 mg/kg; P.I. MES (TD50/ED50) [9]: 2.46
8 | Cc1ccc(NC(C)c2ccncc2)cc1 (centres unmarked) [Compound 6, 1-(4-Methylanilino)-1-(4-pyridyl)-ethan] | no activity | < 100 | no activity | inhibit selectively | – | ASP classification (Table 8) [1]: I (They demonstrate anticonvulsant activity in either the MES test or the scMet test, or both at doses of 100 mg/kg or 30 mg/kg without signs of neurological deficit)
9 | COc1ccc(NC(C)c2ccncc2)cc1 (centres unmarked) [Compound 7, 1-(4-Methoxyanilino)-1-(4-pyridyl)-ethan] | – | < 100 | – | – | 25 to 50 | ASP classification (Table 8) [1]: I (They demonstrate anticonvulsant activity in either the MES test or the scMet test, or both at doses of 100 mg/kg or 30 mg/kg without signs of neurological deficit); protection at 50 mg/kg (Table 8) ([6]; 50 mg/kg, rat, p.o., MES): 25-50%
10 | CC(Nc1ccccc1)c1ccncc1 (centres unmarked) [Compound 8, 1-(Anilino)-1-(4-pyridyl)-ethan] | no activity | < 100 | no activity | inhibit selectively | 50 to 75 | TD50 [10]: > 500 mg/kg; ED50 [11]: > 250 mg/kg; ED50 [6]: 48.4 mg/kg; P.I. MES (TD50/ED50) ([6]; rat, p.o.): > 10.33; TD50 [7]: 161 mg/kg; ED50 [8]: < 300 mg/kg; ED50 [9]: 81.7 mg/kg; P.I. MES (TD50/ED50) [9]: 1.97
11 | CC(Nc1ccc(Cl)cc1)c1cccnc1 (centres unmarked) [Compound 9, 1-(4-Chloroanilino)-1-(3-pyridyl)-ethan] | no activity | < 100 | no activity | inhibit selectively | 25 to 75 | –
12 | Clc1ccc(NCc2ccncc2)cc1Cl [Compound 10, 1-(3,4-Dichloroanilino)-1-(4-pyridyl)-methan] | no activity | < 100 | no activity | inhibit selectively | 50 | –
13 | Clc1ccc(NCc2ccncc2)cc1 [Compound 11, 1-(4-Chloroanilino)-1-(4-pyridyl)-methan] | no activity | < 100 | no activity | inhibit selectively | 50 to 100 | TD50 [10]: > 500 mg/kg; ED50 [11]: > 250 mg/kg; ED50 [6]: 39.1 mg/kg; P.I. MES (TD50/ED50) ([6]; rat, p.o.): > 12.8; TD50 ([7]; mice, i.p., read-out: TD50 (rotorod)): < 225 mg/kg; ED50 [8]: 107 mg/kg; ED50 [9]: 68.4 mg/kg; P.I. MES (TD50/ED50) [9]: < 3.3
14 | Clc1cccc(NCc2ccncc2)c1 [Compound 12, 1-(3-Chloroanilino)-1-(4-pyridyl)-methan] | no activity | < 100 | no activity | inhibit selectively | > 50 | –
15 | Brc1ccc(NCc2ccncc2)cc1 [Compound 13, 1-(4-Bromoanilino)-1-(4-pyridyl)-methan] | no activity | < 100 | no activity | inhibit selectively | > 50 | –
16 | Fc1ccc(NCc2ccncc2)cc1 [Compound 14] | – | < 100 | – | – | 25 | –
17 | Cc1ccc(NCc2ccncc2)cc1 [Compound 15, 1-(4-Methylanilino)-1-(4-pyridyl)-methan] | – | < 100 | – | – | – | –
18 | COc1ccc(NCc2ccncc2)cc1 [Compound 16, 1-(4-Methoxyanilino)-1-(4-pyridyl)-methan] | – | < 100 | – | – | – | –
19 | C[C@@H](N)C(=O)O [D-Alanine, reference compound] | – | – | – | – | – | Ki [12]: 4900 nM
20 | c1ccc(N2N=NCC2c2ccncc2)cc1 (centres unmarked) [H, reference compound] | – | – | – | – | – | ASP classification (Table 8) [1]: II (Class II compounds show anticonvulsant activity at doses greater than 100 mg/kg or show activity at 100 mg/kg which is not reinforced by similar activity at 300 mg/kg)
21 | C=C(C)[C@H]1CN[C@H](C(=O)O)[C@H]1CC(=O)O [Kainic Acid, reference compound] | – | – | – | – | – | Ki [13]: 24.9 nM
22 | CNC(=O)[C@H]1O[C@@H](n2cnc3c(N)ncnc32)[C@H](O)[C@@H]1O [MECA, reference compound] | – | – | – | – | – | Ki [14]: 39.5 nM
23 | C[C@]12N[C@H](Cc3ccccc31)c1ccccc12 [MK-801, reference compound] | – | – | – | – | – | Ki ([4]; reference compound, [3H]MK-801): 4.3 nM
24 | c1ccc(C2(N3CCCCC3)CCCCC2)cc1 [PCP, phencyclidine, reference compound] | – | – | – | – | – | Ki ([3]; reference compound, [3H]TCP): 62.3 nM
